PubChem BioAssay AID2305 (GlaxoSmithKline (GSK), 2010)

tested on: P. falciparum 3D7 growth, pLDH absorbance; experiment: blood-stage malaria parasite growth potency – strain 3D7, dose response (AID 2305)

| SMILES | IC50 [nM] |
| --- | --- |
| O=C(Nc1ccc(-c2cccc(-c3nc4ccc(C(F)(F)F)cc4[nH]3)c2)cc1)Nc1ccc(F)c(F)c1F | 710 |
| CC(C)COc1ccc(Cl)cc1Cc1ccc(-c2nc3c(cnc4ccccc43)[nH]2)o1 | 1260 |
| CC[C@H]1CN2CC[C@@H]1C[C@H]2[C@H](O)c1cc(N2CCC(C(N)=O)CC2)nc2ccc(OC)cc12 | 770 |
| O=C(NCCCCCN1CCC(c2c[nH]c3ccccc23)CC1)Nc1ccc(Cl)cc1Cl | 720 |
| COc1ccc(Nc2nccc(N3CCC(NC(=O)C(C)c4ccc(Cl)cc4)CC3)n2)cc1 (stereo unspecified) | 930 |
| CN1CCc2ccc(NC(=O)Nc3cccc([N+](=O)[O-])c3)cc2C1 | 1100 |
| Nc1ncc(-c2ccccc2)cc1-c1nc2cc(Cl)c(F)cc2[nH]1 | 260 |
| COc1ccc(C(C(=O)NC2CCN(C[C@H](O)c3ccnc4ccc(OC)cc34)CC2)N2CCN(Cc3ccccc3)CC2)cc1 (stereo partly specified) | 150 |
| CCOc1ccc2c(NN=Cc3ccc(OC)c(OC)c3)cc(C)nc2c1 | 700 |
| CCCC(=O)c1cnc2cc(O)ccc2c1Nc1ccccc1C | 650 |
| CC(C)n1c(CC2CCN(CC3CCN(C(=O)/C=C/c4ccc(Cl)c(Cl)c4)CC3)CC2)nc2ccccc21 | 610 |
| Cc1ccc(CN2CCN(Cc3cccc(NC(=O)c4ccc5ccccc5c4)c3)CC2)cc1C | 1220 |
| Cc1cccc2[nH]c(-c3ccc(-c4ccc(CN5CCC(N)C5)cc4)s3)nc12 (stereo unspecified) | 370 |
| CCN(CC)CCNC(=O)c1ccc(N=Cc2c(O)[nH]c3ccc(S(=O)(=O)Cc4c(Cl)cccc4Cl)cc23)cc1 | 840 |
| COc1ccccc1CNCC(O)c1cc(C(F)(F)F)ccc1C(F)(F)F (stereo unspecified) | 940 |
| CCc1cc2c(cc1CC)CC(NC[C@@H](O)c1ccc(O)c3[nH]c(=O)ccc13)C2 | 1120 |
| Cc1cccc(CNc2nc(C)cc(N[C@@H](CC(C)C)C(=O)NCc3cccc(F)c3)n2)c1 | 1180 |
| COc1ccccc1N1CCN(C(C(=O)NCc2ccc3c(c2)OCO3)c2ccc3c(c2)OCCCO3)CC1 (stereo unspecified) | 1120 |
| Cc1nnsc1C(=O)Nc1cccc(-c2ccc(-c3nc4ccccc4[nH]3)s2)c1 | 880 |
| CCCC(C(=O)OCCN(CC)CC)(c1ccc(Cl)cc1)c1ccc(Cl)cc1 | 880 |
| O=C(NC1CCN(c2ccnc3ccccc23)C1)c1ccc(OC(F)(F)F)cc1 (stereo unspecified) | 1150 |
| COc1ccc(CCC(C)(C)NCC(O)c2cccc(C(F)(F)F)c2)cc1 (stereo unspecified) | 480 |
| O=C1OC(c2ccccc2)(c2ccccc2)CN1CC1CCN(Cc2ccc(O)c(Cl)c2)CC1 | 820 |
| O=C(/C=C/c1ccc(Cl)c(Cl)c1)NCCCCCN1CCCC(C(=O)Nc2ccc(Cl)cc2)C1 (stereo unspecified) | 850 |

| SMILES | IC50 [nM] |
| --- | --- |
| CCNc1cc(C(=O)N[C@@H](Cc2ccccc2)[C@H](O)CNC2CCC(C)(C)C2)cc(N2CCCCS2(=O)=O)c1 (stereo partly specified) | 140 |
| Cc1cccc2[nH]c(-c3ccc(-c4ccc(NC(=O)NCc5ccc(F)cc5)cc4)cc3)nc12 | 1330 |
| N#Cc1ccc2c(c1)CCN(CCC1CCC(NC(=O)c3ccc(-c4ccccn4)s3)CC1)CC2 (stereo unspecified) | 1010 |
| Cc1cccc(CCCNC(=O)CN(c2cccc(C(F)(F)F)c2)S(=O)(=O)c2ccc(C(F)(F)F)cc2)c1 | 680 |
| CN1CCC(N(Cc2ccc(-c3ccc(C(F)(F)F)cc3)cc2)C(=O)Cn2cc(Cc3cnn(C)c3)c(=O)nc2SCc2cccc(F)c2F)CC1 | 930 |
| O=C(N[C@@H]1C[C@H]1c1ccccc1)N(CCCn1ccnc1)Cc1csc(-c2ccc(CNCc3ccccc3)cc2)n1 | 850 |
| CCn1c(-c2nonc2N)nc2c(-c3cc4ccccc4s3)ncc(C(=O)N3CCC(N)C3)c21 (stereo unspecified) | 870 |
| FC(F)(F)c1ccc2nc(-c3cccc(-c4ccc(CNCCc5ccncc5)cc4)c3)[nH]c2c1 | 100 |
| Cc1cc(F)ccc1Nc1nc(N(C)c2ccccc2)c2cc(OCCCN(C)C)ccc2n1 | 720 |
| Nc1ccc2[nH]cc(C3CCN(CCC4CCN(C(=O)/C=C/c5ccc(Cl)c(Cl)c5)CC4)CC3)c2n1 | 740 |
| CCOc1ccccc1C1CCN(CCCCNC(=O)c2ccc(NC(=O)c3ccc(Cl)cc3)cc2)CC1 | 850 |
| Nc1cccc(CNCc2ccc(-c3ccc(-c4nc5ccc(F)cc5[nH]4)s3)cc2)c1 | 990 |
| O=C(CSc1nc2ccccc2c(=O)n1CC1CCCO1)Nc1cc(C(F)(F)F)ccc1Cl (stereo unspecified) | 230 |
| COc1ccc(CC(=O)Nc2ccc(Nc3nc(C)cc(N(C)C)n3)cc2)cc1 | 790 |
| Cc1cc(NN=CC=Cc2ccccc2)c2ccccc2n1 | 760 |
| c1cc(CNCC2CCCO2)cc(-c2csc(-c3nc4ccccc4[nH]3)c2)c1 (stereo unspecified) | 1040 |
| CC1(C)C(=O)Nc2ccc3c(c21)CC1SC(=O)NN=C31 (stereo unspecified) | 1490 |
| O=c1cc(NC[C@@H]2CCC[C@@H]2NCc2ccc(Cl)c(Cl)c2)[nH]c2ccccc12 | 600 |
| O=C(Nc1ccc(Oc2ccccc2)cc1)N1CCC(CCN2CCC(c3c[nH]c4ccccc34)CC2)CC1 | 800 |
| CN(C)CCCNCCS(=O)(=O)c1cccc(Nc2ccc(-c3cccc(N(C)C)c3)cn2)c1 | 860 |
| CC(CN1CCN(C)CC1)C(=O)Nc1cccc(-c2ccc(-c3nc4ccc(F)cc4[nH]3)cc2)c1 (stereo unspecified) | 810 |
| Cc1ccc(NC(=O)C(C)Sc2n[nH]c(-c3ccccc3Br)n2)cc1 (stereo unspecified) | 1090 |
| Nc1cccc(CNCc2cccc(-c3cccc(-c4nc5ccc(C(F)(F)F)cc5[nH]4)c3)c2)c1 | 510 |
| CN(C)Cc1cccc(CNC(=O)c2sccc2OCc2ccc(Cl)cc2)c1 | 830 |

| SMILES | IC50 [nM] |
| --- | --- |
| O=[N+]([O-])c1ccc(-n2nc(Cc3ccccc3)n(Cc3cccc(F)c3)c2=S)c(C(F)(F)F)c1 | 770 |
| CCCNCc1ccc(-c2ccc(CN(CC3CCCO3)C(=O)C3CC(=O)c4ccccc43)cc2)nc1 (stereo unspecified) | 860 |
| Cc1ccc(C)c2sc(N(CCCn3ccnc3)C(=O)c3ccco3)nc12 | 870 |
| COc1cc(Cc2cnc(N)nc2N)cc(OCCCCCC(=O)O)c1OC | 230 |
| CC(Oc1c(C2CCN(CCCCNC(=O)c3ccc(-c4ccc(Cl)cc4)cc3)CC2)ccc2c1CCCC2)C(N)=O (stereo unspecified) | 950 |
| COc1ccc(Nc2nc(NN=Cc3cc(Br)ccc3O)nc(Nc3ccc([N+](=O)[O-])cc3)n2)cc1 | 220 |
| COc1ccc(NC(=O)/C=C/c2ccccc2Cl)cc1OCCN1CCC(NC2CC2)CC1 | 840 |
| CC(C)c1ccc(NC(=O)c2ccc(C(=O)NC3CCN(CC4CCCCC4)C3)cc2)cc1 (stereo unspecified) | 790 |
| Cc1onc(-c2ccccc2)c1-c1nc(NCc2ccccc2Cl)no1 | 700 |
| CCN(CC)CCN(Cc1ccc(-c2ccc(Cl)cc2)cc1)C(=O)Cn1c(CCc2cccc(F)c2F)nc(=O)c2ccccc21 | 770 |
| CCCN(Cc1nnc(-c2cccs2)o1)C(=O)CSc1nnnn1-c1cc(C)cc(C)c1 | 500 |
| NC(N)=NN=Cc1ccc2c(ccc3ccccc32)c1 | 630 |
| O=C(CCCCCNC(=O)c1ccc(O)c(-c2ccc(Cl)c(Cl)c2)c1)NCCN1CCCCC1 | 890 |
| Cc1ccc2[nH]c3c(NCCCN(C)C)ncnc3c2c1 | 650 |
| Cc1ccc(NC(=O)c2ccc(NCCCN(C)Cc3ccccc3)c([N+](=O)[O-])c2)cc1F | 700 |
| COc1cccc(C2(c3cccc(OC)c3)N=C(N)N(CCCc3ccccc3)C2=O)c1 | 260 |
| CC(=O)N/N=C/[C@H](CCc1ccccc1)NC(=O)[C@H](CC(C)C)NC(=O)c1ccc(F)cc1 | 690 |
| C=CCN1C(=O)C(=Cc2cc(Br)ccc2O)SC1=Nc1ccccc1 | 900 |
| COc1ccc(-c2nc(NC(=O)CS(=O)(=O)c3ccccc3)sc2C)cc1 | 600 |
| CC(C)C(=O)n1ncc2c3c(N)nc(N)nc3ccc21 | 1030 |
| COc1cccc(Nc2nc(Nc3cccc(C#N)c3)cc(-c3ccncc3)n2)c1 | 760 |
| CCN1CCN(c2cc(C)c3cc(NC(=O)c4ccc(OC)c([N+](=O)[O-])c4)ccc3n2)CC1 | 550 |
| NC(=O)c1cccc(C(=O)Nc2cccc(-c3ccc(-c4nc5ccccc5[nH]4)s3)c2)c1 | 350 |
| O=C(NC1CCC(CCN2CCc3ccc(-c4cnccn4)cc3CC2)CC1)c1cccc(-n2cccn2)c1 (stereo unspecified) | 900 |

| SMILES | IC50 [nM] |
| --- | --- |
| COc1ccc2nccc(NC(=O)N3CCC(NCCOc4cc(F)cc(F)c4)CC3)c2n1 | 770 |
| O=C(c1cccc(-c2noc(C(F)(F)F)n2)c1)N1CCN(C(=O)c2ccc3cc[nH]c3c2)CC1 | 110 |
| CN(C(=O)Cc1ccc(Cl)cc1)C1CCN(CCCCCNC(=O)/C=C/c2ccc(Cl)c(Cl)c2)CC1 | 720 |
| CCCOc1ccccc1-c1nc2[nH]c3c(c2c(=O)[nH]1)CCN(C)C3 | 370 |
| CC(C)n1cc2c(ccc3nc(N)nc(N)c32)n1 | 40 |
| COc1cc(C(F)(F)F)nc2c(CNCCCNc3cc(=O)c4ccccc4[nH]3)scc12 | 1180 |
| CCCc1c(Cl)cc(CNCCCNc2nc3ccncc3[nH]2)cc1Cl | 740 |
| c1cncc(CN2CCN(Cc3ccc(-c4ccc(-c5nc6ccccc6[nH]5)s4)cc3)CC2)c1 | 940 |
| NC(=O)c1ccc(NC(=O)CN(Cc2ccc(Cl)cc2)S(=O)(=O)c2ccccc2)cc1 | 650 |
| C[C@@H]([C@@H](CCCc1ccc(Cl)cc1)C(=O)N[C@H](C(=O)Nc1cccnc1)C(C)(C)C)N(O)C=O | 720 |
| COc1ccc(CN2CCCC(Nc3ccc(F)c(F)c3)C2)c(O)c1 (stereo unspecified) | 1090 |
| C=CCOc1ccc(C2C(C(=O)OC)=C(C)NC3=C2C(=O)c2ccccc23)cc1OC (stereo unspecified) | 880 |
| CC(Cc1ccc(C(=O)Nc2ccc(CC(C)NCCc3cccc(Cl)c3)cc2)cc1)NCCc1ccc(C(F)(F)F)cc1 (stereo unspecified) | 570 |
| COC(=O)C1=C(C)NC2=C(C(=O)CC(c3ccc(OC)c(OC)c3)C2)C1c1cccc(O)c1 (stereo unspecified) | 730 |
| O=C(c1ccc(-c2ccc(-c3nc4ccc(F)cc4[nH]3)cc2)cc1)N1CCCCC1CN1CCC(O)C1 (stereo unspecified) | 370 |
| Cc1cccc2[nH]c(-c3ccc(-c4ccc(CN5CCCC(O)C5)cc4)cc3)nc12 (stereo unspecified) | 860 |
| Cc1cccc(CC(N)=NCCCCCCN=C(N)Cc2cccc(C)c2)c1 | 170 |
| Cc1cc(N2CCN(C(=O)OC(C)(C)C)CC2)ccc1N | 870 |
| NC(N)=Nc1ccc(OCCCCCOc2ccc(N=C(N)N)cc2Br)c(Br)c1 | 260 |
| COc1ccc(NC(=O)N2CCN(CCCCCNC(=O)/C=C/c3ccc(C(F)(F)F)cc3)CC2)cc1Cl | 860 |
| Cc1ccccc1C1CCN(C2CCC(NC(=O)/C=C/c3c(F)ccc(F)c3F)CC2)CC1 (stereo unspecified) | 1260 |
| C[C@@H](CC1CCCCC1)OC(=O)N(C)[C@@H]1CCN(C#N)C1 | 620 |
| NC(=O)c1cccc(CNC(=O)NC[C@H]2CN(Cc3ccc(Cl)c(Cl)c3)CCO2)c1 | 590 |
| O=C(Nc1ccc(OC2CCN(Cc3ccc(F)cc3)CC2)c(Cl)c1)c1ccccc1 | 790 |
